Values joined by “and” are separate entries in the source; they are usually repeats but may differ in a detail not shown here. Equal values may be shown once. ± gives the uncertainty stated by the source.
Experiment: xn = mol fraction of the nth substance listed

CN(C)P(=O)(N(C)C)N(C)C + CO
303.15 K, 101.3 kPa
Settings	viscosity [mPa·s]
x1 = 0.0993	0.829 ± 0.013
x1 = 0.2036	1.145 ± 0.016
x1 = 0.2984	1.401 ± 0.02
x1 = 0.3941	1.63 ± 0.026
x1 = 0.4882	1.846 ± 0.031
x1 = 0.5898	2.07 ± 0.039
x1 = 0.6978	2.308 ± 0.047
x1 = 0.778	2.476 ± 0.055
x1 = 0.8966	2.722 ± 0.066

CC(=O)c1ccccc1 + COC(=O)c1ccccc1
viscosity [mPa·s], 101 kPa
Settings	x2 = 0.0946	x2 = 0.1898	x2 = 0.2861	x2 = 0.386	x2 = 0.4823	x2 = 0.5819	x2 = 0.6825	x2 = 0.7877	x2 = 0.8917
303.15 K	1.527 ± 0.02	1.558 ± 0.019	1.588 ± 0.019	1.611 ± 0.018	1.608 ± 0.018	1.606 ± 0.017	1.6 ± 0.016	1.593 ± 0.016	1.614 ± 0.015
313.15 K	1.285 ± 0.018	1.307 ± 0.017	1.329 ± 0.017	1.348 ± 0.017	1.341 ± 0.016	1.334 ± 0.015	1.322 ± 0.015	1.315 ± 0.014	1.329 ± 0.014

CCC(C)C(C)C (stereo not given) + COC(C)(C)C
298.15 K, 101.33 kPa
Settings	viscosity [mPa·s]
x2 = 0.0983	0.3824 ± 0.0037
x2 = 0.1999	0.3758 ± 0.0037
x2 = 0.2986	0.3693 ± 0.0037
x2 = 0.3972	0.363 ± 0.0037
x2 = 0.4975	0.3572 ± 0.0037
x2 = 0.5979	0.3519 ± 0.0037
x2 = 0.7006	0.3469 ± 0.0037
x2 = 0.797	0.3423 ± 0.0037
x2 = 0.8949	0.3387 ± 0.0037

C1COCO1 + COCCO
298.15 K, 101 kPa
Settings	viscosity [mPa·s]
x1 = 0.1024	1.345 ± 0.01
x1 = 0.2043	1.171 ± 0.0093
x1 = 0.3057	1.032 ± 0.0083
x1 = 0.4065	0.9197 ± 0.0075
x1 = 0.5067	0.8293 ± 0.0068
x1 = 0.6064	0.7564 ± 0.0063
x1 = 0.7056	0.6979 ± 0.0059
x1 = 0.8043	0.6517 ± 0.0056
x1 = 0.9024	0.6155 ± 0.0053

CCC(O)CC + COc1ccccc1
viscosity [mPa·s], 101.33 kPa
Settings	x2 = 0.1007	x2 = 0.2006	x2 = 0.3001	x2 = 0.3996	x2 = 0.5	x2 = 0.5999	x2 = 0.6973	x2 = 0.7998	x2 = 0.8971
303.15 K	2.787 ± 0.037	2.043 ± 0.027	1.547 ± 0.02	1.238 ± 0.016	1.062 ± 0.013	0.976 ± 0.012	0.941 ± 0.012	0.927 ± 0.011	0.917 ± 0.011
313.15 K	1.745 ± 0.023	1.355 ± 0.018	1.093 ± 0.014	0.938 ± 0.012	0.863 ± 0.011	0.835 ± 0.011	0.824 ± 0.01	0.811 ± 0.01	0.793 ± 0.01
323.15 K	1.261 ± 0.017	1.041 ± 0.014	0.888 ± 0.012	0.795 ± 0.01	0.747 ± 0.01	0.729 ± 0.009	0.719 ± 0.009	0.709 ± 0.009	0.697 ± 0.009

O=S(Cl)Cl + Cc1cc(C)cc(C)c1
298.15 K, 101 kPa
Settings	viscosity [mPa·s]
x1 = 0.234	0.685 ± 0.018
x1 = 0.314	0.6908 ± 0.018
x1 = 0.432	0.6952 ± 0.018
x1 = 0.571	0.6939 ± 0.018
x1 = 0.743	0.677 ± 0.017
x1 = 0.9	0.6495 ± 0.017

CCCCCCCC/C=C\CCCCCCCC(=O)OCC(COC(=O)CCCCCCC/C=C\CCCCCCCC)OC(=O)CCCCCCC/C=C\CCCCCCCC + Cc1ccc(C)cc1
viscosity [mPa·s], 101.33 kPa
Settings	293.15 K	298.15 K	303.15 K	308.15 K	313.15 K
x1 = 0.000755	0.6573 ± 0.017	0.6175 ± 0.017	0.5813 ± 0.016	0.5465 ± 0.015	0.5168 ± 0.014
x1 = 0.001496	0.6699 ± 0.018	0.6292 ± 0.017	0.5923 ± 0.016	0.5567 ± 0.015	0.5261 ± 0.015
x1 = 0.004118	0.7209 ± 0.019	0.6762 ± 0.018	0.6359 ± 0.017	0.5968 ± 0.016	0.5636 ± 0.015
x1 = 0.007318	0.7825 ± 0.02	0.7329 ± 0.019	0.6883 ± 0.018	0.6454 ± 0.017	0.609 ± 0.016
x1 = 0.01139	0.8597 ± 0.022	0.8042 ± 0.021	0.7541 ± 0.019	0.706 ± 0.018	0.665 ± 0.018
x1 = 0.01526	0.9594 ± 0.024	0.8955 ± 0.023	0.8379 ± 0.021	0.7833 ± 0.02	0.7368 ± 0.019
x1 = 0.02469	1.185 ± 0.029	1.101 ± 0.027	1.027 ± 0.025	0.9558 ± 0.024	0.8959 ± 0.023
x1 = 0.02908	1.291 ± 0.031	1.197 ± 0.029	1.115 ± 0.027	1.037 ± 0.026	0.9704 ± 0.024
x1 = 0.03513	1.421 ± 0.034	1.316 ± 0.032	1.222 ± 0.03	1.134 ± 0.028	1.06 ± 0.026
x1 = 0.04678	1.777 ± 0.042	1.637 ± 0.038	1.513 ± 0.036	1.399 ± 0.033	1.302 ± 0.031
x1 = 0.06075	2.241 ± 0.051	2.061 ± 0.048	1.885 ± 0.044	1.733 ± 0.041	1.605 ± 0.038

CC(=O)c1ccccc1 + Cc1ccccc1
viscosity, 101 kPa
Settings	x2 = 0.1093	x2 = 0.2145	x2 = 0.3206	x2 = 0.4281	x2 = 0.5229	x2 = 0.6213	x2 = 0.7157	x2 = 0.8392	x2 = 0.9074
298.15 K	1.561 ± 0.018 mPa·s and 1.561 ± 0.03 mPa·s	1.446 ± 0.017 mPa·s and 1.446 ± 0.027 mPa·s	1.329 ± 0.015 mPa·s and 1.329 ± 0.025 mPa·s	1.211 ± 0.014 mPa·s and 1.211 ± 0.023 mPa·s	1.105 ± 0.013 mPa·s and 1.105 ± 0.021 mPa·s	0.9949 ± 0.012 mPa·s and 0.9949 ± 0.019 mPa·s	0.8879 ± 0.011 mPa·s and 0.8879 ± 0.017 mPa·s	0.7472 ± 0.0092 mPa·s and 0.7472 ± 0.014 mPa·s	0.6694 ± 0.0084 mPa·s and 0.6694 ± 0.013 mPa·s
303.15 K	1.426 ± 0.017 mPa·s and 1.426 ± 0.027 mPa·s	1.323 ± 0.015 mPa·s and 1.323 ± 0.025 mPa·s	1.218 ± 0.014 mPa·s and 1.218 ± 0.023 mPa·s	1.112 ± 0.013 mPa·s and 1.112 ± 0.021 mPa·s	1.018 ± 0.012 mPa·s and 1.018 ± 0.019 mPa·s	0.9188 ± 0.011 mPa·s and 0.9188 ± 0.017 mPa·s	0.8233 ± 0.01 mPa·s and 0.8233 ± 0.016 mPa·s	0.6978 ± 0.0087 mPa·s and 0.6978 ± 0.013 mPa·s	0.6286 ± 0.0079 mPa·s and 0.6286 ± 0.012 mPa·s
308.15 K	1.31 ± 0.015 mPa·s and 1.31 ± 0.025 mPa·s	1.217 ± 0.014 mPa·s and 1.217 ± 0.023 mPa·s	1.123 ± 0.013 mPa·s and 1.123 ± 0.021 mPa·s	1.027 ± 0.012 mPa·s and 1.027 ± 0.019 mPa·s	0.9425 ± 0.011 mPa·s and 0.9425 ± 0.018 mPa·s	0.8535 ± 0.01 mPa·s and 0.8535 ± 0.016 mPa·s	0.7678 ± 0.0094 mPa·s and 0.7678 ± 0.015 mPa·s	0.6554 ± 0.0082 mPa·s and 0.6554 ± 0.013 mPa·s	0.5933 ± 0.0076 mPa·s and 0.5933 ± 0.011 mPa·s

CCC(O)CC + Cc1ccccc1
viscosity [mPa·s], 101 kPa
Settings	x1 = 0.1	x1 = 0.1999	x1 = 0.2999	x1 = 0.4	x1 = 0.4999	x1 = 0.6	x1 = 0.6999	x1 = 0.8	x1 = 0.9001
303.15 K	0.5369 ± 0.019	0.57 ± 0.02	0.6172 ± 0.022	0.6865 ± 0.024	0.7794 ± 0.026	0.9264 ± 0.031	1.142 ± 0.037	1.52 ± 0.048	2.12 ± 0.066
308.15 K	0.5072 ± 0.018	0.5352 ± 0.019	0.5765 ± 0.02	0.6364 ± 0.022	0.7145 ± 0.025	0.8369 ± 0.028	1.015 ± 0.033	1.313 ± 0.042	1.767 ± 0.056
313.15 K	0.4793 ± 0.018	0.5027 ± 0.018	0.5395 ± 0.019	0.5918 ± 0.021	0.658 ± 0.023	0.7604 ± 0.026	0.9062 ± 0.03	1.147 ± 0.037	1.493 ± 0.048
318.15 K	0.4555 ± 0.017	0.4739 ± 0.017	0.5062 ± 0.018	0.5515 ± 0.02	0.6092 ± 0.022	0.6951 ± 0.024	0.8461 ± 0.029	1.013 ± 0.034	1.285 ± 0.042
323.15 K	0.433 ± 0.016	0.4499 ± 0.017	0.4765 ± 0.018	0.5154 ± 0.019	0.5649 ± 0.02	0.6384 ± 0.022	0.7404 ± 0.025	0.9004 ± 0.03	1.112 ± 0.036
